Measurements from ChEMBL document CHEMBL5150016, “Inhibiting Sodium Taurocholate Cotransporting Polypeptide in HBV-Related Diseases: From Biological Function to Therapeutic Potential” (J Med Chem, 2022).
Converted amounts (≈) assume the structure as drawn. Each block holds one molecule with its values, some of them ahead of it.

Tests used:
[1] = biological target: T1, Hepatic sodium/bile acid cotransporter (Homo sapiens, UniProt Q14973); test: Inhibition of HBV subgenotype D3 [3H]-myr-preS1 (2 to 48 residues) peptide binding to human NTCP in HEK293 cells preincubated for 5 mins followed by substrate addition and measured after 10 mins using by microplate scintillation counter analysis; assay type: cell-based
T1 sequence (Q14973 whole entry): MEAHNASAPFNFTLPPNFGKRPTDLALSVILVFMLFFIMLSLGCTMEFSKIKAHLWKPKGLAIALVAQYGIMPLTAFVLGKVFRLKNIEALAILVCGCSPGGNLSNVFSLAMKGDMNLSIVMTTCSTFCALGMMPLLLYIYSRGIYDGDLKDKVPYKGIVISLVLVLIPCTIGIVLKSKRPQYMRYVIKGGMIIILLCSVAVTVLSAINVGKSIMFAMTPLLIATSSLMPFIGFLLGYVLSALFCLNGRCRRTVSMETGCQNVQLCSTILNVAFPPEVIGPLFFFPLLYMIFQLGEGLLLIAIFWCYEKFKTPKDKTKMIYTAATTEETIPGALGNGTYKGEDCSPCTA

Hepatitis B virus [2] = test: Antiviral activity against HBV infected human HepG2-hNTCP cells assessed as reduction of HBV DNA level preincubated for 3 hrs followed by viral infection for 16 hrs further compound washout and measured 6 days post infection by qPCR analysis; assay type: functional, organism-based
Hepatitis B virus [3] = test: Antiviral activity against HBV infected HepG2 2.2.15 cells assessed as reduction in HBsAg level at 50 microg/ml for 48 hrs by ELISA; assay type: functional, organism-based; parameters: Activity: scale not given: the % may be the effect or the level left; settings: for Activity: dose 50 µg/ml, time 48 hrs
Hepatitis B virus [4] = test: Antiviral activity against HBV infected HepG2 2.2.15 cells assessed as reduction in HBeAg level at 50 microg/ml for 48 hrs by ELISA; assay type: functional; parameters: scale not given: the % may be the effect or the level left; settings: dose 50 µg/ml
Hepatitis B virus [5] = test: Antiviral activity against HBV infected in human HepG2-hNTCP cells assessed as reduction in intracellular HBV RNA incubated for 16 hrs followed by compound washout and measured after 6 days post infection by ELISA; assay type: functional, organism-based
Hepatitis B virus [6] = test: Antiviral activity against HBV infected HepG2 cells assessed as reduction in HBsAg level; assay type: functional, organism-based; settings: HepG2 2.2.15
Hepatitis B virus [7] = test: Antiviral activity against HBV infected HepG2 cells assessed as reduction in HBeAg level; assay type: functional, organism-based; settings: HepG2 2.2.15
[8] = biological target: T1, Hepatic sodium/bile acid cotransporter; test: Inhibition of TAMRA-labeled preS1-peptide binding to human NTCP in HepG2-hNTCP cells incubated for 30 mins by […]; assay type: cell-based
[9] = biological target: T1, Hepatic sodium/bile acid cotransporter; test: Inhibition of human NTCP mediated TCA uptake in HepG2-hNTCP cells incubated for 15 mins using [3H] taurocholic acid as substrate by liquid scintillation counter analysis; assay type: cell-based
Hepatitis delta virus [10] = test: Antiviral activity against hepatitis D virus infected in human HepG2-hNTCP cells assessed as reduction in viral replication preincubated for 5 mins followed by viral infection measured after 6 hrs post infection by RT-qPCR analysis; assay type: functional, organism-based
HepG2 = test: Antiproliferative activity against human HEpG2 cells; assay type: functional, cell-based
Hepatitis B virus [11] = test: Antiviral activity against HBV infected HepG2 2.2.15 cells assessed as reduction in HBeAg level and measured after 9 days by ELISA; assay type: functional, organism-based; settings: HepG2 2.2.15, 216 h
Hepatitis B virus [12] = test: Antiviral activity against HBV infected HepG2 2.2.15 cells assessed as reduction in HBsAg level and measured after 9 days by ELISA; assay type: functional, organism-based; settings: HepG2 2.2.15, 216 h
[13] = biological target: T1, Hepatic sodium/bile acid cotransporter; test: Inhibition of preS1-peptide binding to human HA-tagged NTCP in U2OS expresseing NTCP in incubated for 24 hrs using Myrcludex B as substrate by competitive binding assay; assay type: cell-based
[14] = biological target: T1, Hepatic sodium/bile acid cotransporter; test: Inhibition of human NTCP mediated TCA uptake in U2OS expresseing HA-tagged NTCP cells preincubated for 10 mins followed by substrate addition and measured after 2 mins using [3H]-taurocholate as substrate by liquid scintillation counter analysis; assay type: cell-based
Hepatitis B virus [15] = test: Antiviral activity against HBV infected in human HepG2-hNTCP cells assessed as reduction in HBsAg level preincubated for 2 hrs followed by viral infection for 16 hrs further compound washout and measured after 12 days post infection by ELISA; assay type: functional, organism-based
[16] = biological target: T1, Hepatic sodium/bile acid cotransporter; test: Binding affinity to human NTCP assessed as dissociation constant by isothermal titration calorimetry
Hepatitis B virus [17] = test: (§1) Antiviral activity against HBV infected in human DMSO differentiated imHC cells assessed as reduction in viral load at 30 uM preincubated for 2 hrs followed by viral infection for 18 hrs followed by compound washout and further treated with fresh compound for 24 hrs and measured on day 7 post infection by real-time qPCR analysis; assay type: functional; parameters: scale not given: the % may be the effect or the level left; settings: time 44 hrs
Hepatitis B virus [18] = test: as §1, with “intracellular HBV DNA” for “viral load”; assay type: functional; parameters: scale not given: the % may be the effect or the level left; settings: time 44 hrs
Hepatitis B virus [19] = test: Antiviral activity against HBV infected human DMSO differentiated HuS-E/2 cells assessed as reduction of HBV core protein level incubated for 20 hrs by Western blot analysis; assay type: functional, organism-based; settings: HuS-E/2, 20 h
Hepatitis B virus [20] = test: Antiviral activity against HBV infected human DMSO differentiated HuS-E/2 cells overexpressing NTCP assessed as assessed as inhibition of viral entry by measuring HBV mRNA level at 20 uM by qPCR analysis relative to control; assay type: functional
Hepatitis B virus [21] = test: Antiviral activity against HBV infected human DMSO differentiated HuS-E/2 cells overexpressing NTCP assessed as assessed as inhibition of viral entry by measuring HBV mRNA level by qPCR analysis; assay type: functional, organism-based
Hepatitis delta virus [22] = test: Antiviral activity against hepatitis D virus infected in human Huh-7 cells overexpressing NTCP assessed as reduction in intracellular HDV RNA for 20 hrs followed by viral infection further compound washout and measured after 6 days post infection by RT-qPCR analysis; assay type: functional, organism-based
[23] = biological target: T1, Hepatic sodium/bile acid cotransporter; test: Binding affinity to NTCP (unknown origin)

Structure (SMILES): C=C(C)[C@@H]1CC[C@]2(/C=N/O)CC[C@]3(C)[C@H](CC[C@@H]4[C@@]5(C)CC[C@H](O)C(C)(C)[C@@H]5CC[C@]43C)[C@@H]12
IC50 [1]: 11 µM

Structure (SMILES): C[C@H]1O[C@H](Oc2c(-c3cc(O)c(O)c(O)c3)oc3cc(O)cc(O)c3c2=O)[C@@H](O)[C@@H](O)[C@@H]1O
Activity (Hepatitis B virus [3]): 44% | Activity (Hepatitis B virus [4]): 35%

Structure (SMILES): C=C(C)[C@@H]1CC[C@]2(CO)CC[C@]3(C)[C@H](CC[C@@H]4[C@@]5(C)CC[C@H](OC(=O)/C=C/c6ccc(O)c(O)c6)C(C)(C)[C@@H]5CC[C@]43C)[C@@H]12
IC50 [1]: 6 µM

Structure (SMILES): CCCCCCc1c(C)c2ccc(OCC(=O)NC(Cc3ccccc3)C(=O)O)cc2oc1=O (stereo not given)
IC50 [8]: 145 µM | IC50 [9]: 12.5 µM

Structure (SMILES): COc1ccc([C@H](O)[C@H](c2ccccn2)[C@@H](Nc2ccccn2)c2ccccc2)cc1
IC50 [1]: 16.5 µM | IC50 (Hepatitis delta virus [10]): 70 µM

Structure (SMILES): O=Cc1cccc([C@@H]([C@H](Nc2ccccn2)c2ccccc2)[C@@H](O)c2ccccc2)n1
IC50 [1]: 16 µM | IC50 (Hepatitis delta virus [10]): 15 µM

Structure (SMILES): O[C@H](c1ccc([C@@H](O)[C@@H](c2ccccn2)[C@H](Nc2ccccn2)c2ccccc2)cc1)[C@@H](c1ccccn1)[C@H](Nc1ccccn1)c1ccccc1
IC50 [1]: 6.5 µM | IC50 (Hepatitis delta virus [10]): 70 µM

Structure (SMILES): CCCCCCc1cc2ccc(OCC(=O)NC(CCSC)C(=O)O)cc2oc1=O (stereo not given)
IC50 [8]: 238 µM | IC50 [9]: 17.8 µM

Structure (SMILES): C=C(CO)[C@@H]1CC[C@]2(COC(C)=O)CC[C@]3(C)[C@H](CC[C@@H]4[C@@]5(C)CC[C@H](OC(C)=O)C(C)(C)[C@@H]5CC[C@]43C)[C@@H]12
IC50 [1]: 8 µM

Structure (SMILES): Cc1c(OCC(=O)NC(CSCc2ccccc2)C(=O)O)ccc2c3c(c(=O)oc12)CCCC3 (stereo not given)
IC50 [8]: 123 µM | IC50 [9]: 16.2 µM

Structure (SMILES): CN1CCCC(n2nc(Cc3ccc(Cl)cc3)c3ccccc3c2=O)CC1 (stereo not given) [AZELASTINE]
IC50 (Hepatitis B virus [11]): 3.7 µM | IC50 (Hepatitis B virus [12]): 7.5 µM

Structure (SMILES): C=C(C)[C@@H]1CC[C@]2(COC(C)=O)CC[C@]3(C)[C@H](CC[C@@H]4[C@@]5(C)CC[C@H](OC(C)=O)C(C)(C)[C@@H]5CC[C@]43C)[C@@H]12 [BETULIN DIACETATE]
IC50 [1]: 199 µM

Structure (SMILES): CC1(COc2ccc(CC3SC(=O)NC3=O)cc2)CCCCC1 (stereo not given) [CIGLITAZONE]
IC50 (Hepatitis B virus [15]): 5 µM

Structure (SMILES): O=C(O[C@@H]1Cc2c(O)cc(O)cc2O[C@@H]1c1cc(O)c(O)c(O)c1)c1cc(O)c(O)c(O)c1 [EPIGALOCATECHIN GALLATE]
IC50 (Hepatitis B virus [19]): 10 µM

Structure (SMILES): CC(C)[C@@H](C)/C=C/[C@@H](C)[C@H]1CC[C@@H]2[C@]1(C)CC[C@H]1[C@]23C=C[C@]2(C[C@@H](O)CC[C@]12C)OO3 [ERGOSTEROL PEROXIDE]
inhibition at 20 µM (Hepatitis B virus [20]): 75% | EC50 (Hepatitis B virus [21]): 9.64 µM

Structure (SMILES): O=C1[C@H](CC[C@H](O)c2ccc(F)cc2)[C@@H](c2ccc(O)cc2)N1c1ccc(F)cc1 [EZETIMIBE]
EC50 (Hepatitis delta virus [22]): 10.4 µM | Ki [23]: 25 µM

Structure (SMILES): CCCCC1=NC2(CCCC2)C(=O)N1Cc1ccc(-c2ccccc2-c2nnn[nH]2)cc1 [IRBESARTAN]
EC50 (Hepatitis delta virus [22]): 9.4 µM

Structure (SMILES): O=c1c(O)c(-c2ccc(O)c(O)c2)oc2cc(O)cc(O)c12 [QUERCETIN]
Activity (Hepatitis B virus [3]): 60% | Activity (Hepatitis B virus [4]): 62%

Structure (SMILES): CC(C)c1nc(CN(C)C(=O)N[C@H](C(=O)N[C@@H](Cc2ccccc2)C[C@H](O)[C@H](Cc2ccccc2)NC(=O)OCc2cncs2)C(C)C)cs1 [RITONAVIR]
EC50 (Hepatitis delta virus [22]): 9.1 µM

Structure (SMILES): CN(CCOc1ccc(CC2SC(=O)NC2=O)cc1)c1ccccn1 (stereo not given) [ROSIGLITAZONE]
IC50 (Hepatitis B virus [3]; Hepatitis B virus, HepG2 2.2.15, 48 h): 5.1 µM

Structure (SMILES): Cc1c(C)c2c(c(C)c1O)CCC(C)(COc1ccc(CC3SC(=O)NC3=O)cc1)O2 (stereo not given) [TROGLITAZONE]
IC50 (Hepatitis B virus [15]): 10 µM

Continued, in another order:

IC50 (Hepatitis B virus [2]): 30 µM
Structure (SMILES): Cc1cc(OCCCS(C)(=O)=O)cc(C)c1-c1cccc(COc2ccc3c(c2)OC[C@H]3CC(=O)O)c1

IC50 (Hepatitis B virus [5]): 3.8 µM
Structure (SMILES): O=C1N=C(O)S/C1=C\c1ccc(OCc2ccc(-c3ccccc3)cc2)cc1

IC50 (Hepatitis B virus [6]): 3.95 ng/mL (≈ 0.00906 µM) | IC50 (Hepatitis B virus [7]): 15 ng/mL (≈ 0.0344 µM)
Structure (SMILES): Cc1ccc(C(=O)NCC(=O)N/N=C/c2ccccc2OCc2ccccc2Cl)cc1

IC50 [8]: 150 µM | IC50 [9]: 13.3 µM
Structure (SMILES): Cc1c(Cc2ccccc2)c(=O)oc2cc(OCC(=O)NC(CSCc3ccccc3)C(=O)O)ccc12 (stereo not given)

IC50 (Hepatitis B virus [5]): 1.7 µM
Structure (SMILES): O=C1NC(=O)/C(=C/c2ccc(-c3ccc(-c4cccc5ccccc45)cc3)cc2)S1

IC50 (Hepatitis B virus [6]): 3.24 ng/mL (≈ 0.00568 µM) | IC50 (Hepatitis B virus [7]): 7.64 ng/mL (≈ 0.0134 µM) | IC50 (HepG2): 7.36 µM
Structure (SMILES): CC(C)(C)OC(=O)N1CCN(CC(=O)NCc2cccc(CNS(=O)(=O)c3ccc(C(F)(F)F)cc3)c2)CC1

IC50 (Hepatitis B virus [5]): 5.2 µM
Structure (SMILES): O=C1NC(=O)C(Cc2ccc(OCc3ccc(-c4ccccc4)cc3)cc2)S1 (stereo not given)

IC50 [13]: > 1 µM | IC50 [14]: 7.1 µM
Structure (SMILES): COc1cc(-c2ccc(/N=N/c3ccc4c(S(=O)(=O)O)cc(S(=O)(=O)O)c(N)c4c3O)c(OC)c2)ccc1/N=N/c1ccc2c(S(=O)(=O)O)cc(S(=O)(=O)O)c(N)c2c1O [CHICAGO SKY BLUE]

Kd [16]: 64.3 µM
Structure (SMILES): COc1cc(/C=C/C(=O)CC(=O)/C=C/c2ccc(O)c(OC)c2)ccc1O [CURCUMIN]
Activity (Hepatitis B virus [17]): 55% | Activity (Hepatitis B virus [18]): 67%

IC50 [13]: > 1 µM
Structure (SMILES): O=C(O)c1cc(/N=N/c2ccc(S(=O)(=O)Nc3ccccn3)cc2)ccc1O [SULFASALAZINE]

IC50 [13]: > 1 µM
Structure (SMILES): COc1cc(C(=O)NS(=O)(=O)c2ccccc2C)ccc1Cc1cn(C)c2ccc(NC(=O)OC3CCCC3)cc12 [ZAFIRLUKAST]
